What was measured:
[1] = biological target: T1, Serotonin 2 (5-HT2) receptor (Rattus norvegicus, UniProt P30994+P08909+P14842)
[2] = biological target: 5-hydroxytryptamine receptor 1B (Rattus norvegicus, UniProt P28564); test: biochemical
[3] = biological target: T1, Serotonin 2 (5-HT2) receptor; test: Ability to displace 0.75 nM [3H]ketanserin in 5-hydroxytryptamine 2 receptor from rat frontal cortex homogenate; type: tissue-based

5-hydroxytryptamine receptor 1B, sequence (P28564 whole entry): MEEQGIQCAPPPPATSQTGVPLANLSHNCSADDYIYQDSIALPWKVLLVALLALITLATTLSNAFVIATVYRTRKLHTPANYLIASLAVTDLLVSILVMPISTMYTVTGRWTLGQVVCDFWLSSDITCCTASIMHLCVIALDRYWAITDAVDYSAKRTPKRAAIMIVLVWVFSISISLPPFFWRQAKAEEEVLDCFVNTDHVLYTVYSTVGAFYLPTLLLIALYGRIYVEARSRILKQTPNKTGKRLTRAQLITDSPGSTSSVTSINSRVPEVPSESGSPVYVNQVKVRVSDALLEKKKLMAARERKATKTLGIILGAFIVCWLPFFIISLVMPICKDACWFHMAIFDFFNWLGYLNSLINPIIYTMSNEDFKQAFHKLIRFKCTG

| SMILES | Log Ki [1] | Ki [2] [nM] | Ki [3] [nM] |
| --- | --- | --- | --- |
| COc1cccc2[nH]cc(C[C@@H](C)N)c12 | -5.84 | 776 |  |
| COc1ccc2c(C[C@@H](C)N)c[nH]c2c1 |  | 2140 | > 10000 |
| C[C@H](N)Cc1c[nH]c2cccc(O)c12 | -5.21 | 4070 |  |
| COc1cccc2[nH]cc(C[C@H](C)N)c12 | -6.02 | 2690 |  |
| COc1ccc2[nH]cc(C[C@@H](C)N)c2c1 | -5.89 | 380 |  |
| COc1ccc2c(C[C@H](C)N)c[nH]c2c1 |  | 7240 | > 10000 |
| C[C@@H](N)Cc1c[nH]c2cccc(O)c12 | -5.46 | 1550 |  |
| COc1ccc2[nH]cc(C[C@H](C)N)c2c1 | -6.15 | 417 |  |

— ChEMBL document CHEMBL1124263 (J Med Chem, 1988)
